Consider 3 compounds from US11274095B2, “Modulators of methyl modifying enzymes, compositions and uses thereof” (Constellation Pharmaceuticals, Inc., priority 2018, dated 2022).

One data set has as its system Karpas-422 cell lines. The experiment in a line: Karpas-422 viability assay (Cell Titer-Glo, Day 8). It counts as cell-based. Particulars: Homo sapiens, KARPAS-422, 192 h, Cell Titer-Glo on Day 8. Here is the method:
Karpas-422 cell lines were obtained from DSMZ (Braunschweig, Germany) and were grown in RPMI-1640 media. All media contained 10% fetal bovine serum (FBS) and 1% penicillin/streptomycin (Invitrogen). 20K cells per well were plated onto 96 well compound coated plates. Cells were split and seeded at original plating density (based on the DMSO well counts) every 4 days into plates containing fresh EZH2 inhibitors. Relative cell numbers were assessed by Cell Titer-Glo luminescent cell viability assay (Promega) on Day 8. GraphPad Prism 5 was used for curve fitting and GI50 values were reported.
A general note: Cellular ATP, detected with luciferase, serves as a proxy for viable cell number.

The nature of data set [1]: Cellular permeability in MDCK assay. It counts as in vitro ADME. Particulars: dog, pH 7.4, MDCK II, with P-gp inhibitor GF120918 10 μM; for efflux ratio at 2.5 h, 2 μM: Papp(BA)/Papp(AB). Here is the method: Cell culture: MDCK II cells (obtained from Piet Borst at the Netherlands Cancer Institute) were seeded onto […] (PET) in 96-well BD insert systems at 2.5×10^5 cells/mL until to 4-7 days for confluent cell monolayer formation.
Experimental procedure: Test and reference compounds (nadolol, metoprolol and digoxin) were diluted with transport buffer (HBSS with 10mM Hepes, pH7.4) from stock solution to a concentration of 2 μM (<1% DMSO) and applied to the apical (A) or basolateral (B) side of the cell monolayer. Permeation of the test compounds from A to B direction or B to A direction was determined in duplicate with P-gp inhibitor (GF120918, 10 μM). Digoxin was tested at 10 μM from A to B direction or B to A direction with/without P-gp inhibitor (GF120918, 10 μM) as well, while nadolol and metoprolol were tested at 2 μM in A to B direction without P-gp inhibitor (GF120918, 10 μM) in duplicate. The plate was incubated for 2.5 hours in CO2 incubator at 37±1° C., with 5% CO2 at saturated humidity without shaking. In addition, the efflux ratio of each compound was also determined. Test and reference compounds were quantified by LC/MS/MS analysis based on the peak area ratio of analyte/IS. After transport assay, Lucifer yellow rejection assay are applied to determine the cell monolayer integrity. Buffers are removed from both apical and basolateral chambers, followed by the addition of 75 μL of 100 μM lucifer yellow in transport buffer and 250 μL transport buffer in apical and basolateral chambers, respectively. The plate is incubated for 30 minutes at 37° C. with 5% CO2 and 95% relative humidity without shaking. After 30 minutes incubation, 20 μL of lucifer yellow samples are taken from the apical sides, followed by the addition of 60 μL of Transport Buffer. And then 80 μL of lucifer yellow samples are taken from the basolateral sides. The relative fluorescence unit (RFU) of lucifer yellow is measured at 425/528 nm (excitation/emission) with a Molecular Device M2e plate reader.
Data analysis: The apparent permeability coefficient Papp (cm/s) was calculated using the equation: Papp=(dCr/dt)×Vr/(A×C0) Where dCr/dt is the cumulative concentration of compound in the receiver chamber as a function of time (μM/s); Vr is the solution volume in the receiver chamber (0.075 mL on the apical side, 0.25 mL on the basolateral side); A is the surface area for the transport, i.e. 0.0804 cm2 for the area of the monolayer; C0 is the initial concentration in the donor chamber (μM).
The efflux ratio was calculated using the equation: Efflux Ratio=Papp(BA)/Papp(AB) Percent recovery was calculated using the equation: % Recovery=100×[(Vr×Cr)+(Vd×Cd)]/(Vd×C0) Where Vd is the volume in the donor chambers (0.075 mL on the apical side, 0.25 mL on the basolateral side); Cd and Cr are the final concentrations of transport compound in donor and receiver chambers, respectively.
Percent of lucifer yellow in basolateral well is calculated using the equation:
[formula] where RFUApical and RFUBasolateral are the relative fluorescence unit values of lucifer yellow in the apical and basolateral wells, respectively; VApical and VBasolateral are the volume of apical and basolateral wells (0.075 mL and 0.25 mL), respectively. Percent lucifer yellow should be less than 2.

For data set [2], the target named is T1, PRC2 containing wt EZH2 (Homo sapiens (Human), UniProt Q15910). The experiment in a line: EZH2 biochemical assay (IC50), 3H-SAM incorporation into biotinylated H3 peptide. Particulars: 30 pM PRC2 with wt EZH2, 3-5 h pre-incubation. How it is done: EZH2 biochemical assay (IC50): Compound potencies were assessed through incorporation of ^3H-SAM into a biotinylated H3 peptide. Specifically, 30 pM PRC2 containing wt EZH2 (pentameric complex prepared in-house) was pre-incubated with 450 nM SAM, 450 nM ^3H-SAM, 2 μM H3K27me3 activating peptide (H2N-RKQLATKAAR(Kme3)SAPATGGVKKP-amide) and compounds (as 10 point duplicate dose response titrations in DMSO, final assay 0.8% DMSO (v/v)) for 3-5 h in 50 mM Tris (pH 8.5), 1 mM DTT, 0.07 mM Brij-35, 0.1% BSA, and 0.8% DMSO in a total volume of 12.5 μl. Reaction was initiated with biotinylated H3 substrate peptide (H2N-RKQLATKAAR(Kmel)SAPATGGVKKP-NTPEGBiot) as a 2 μM stock in 12.5 μl of buffer and allowed to react at room temperature for 18-22 h. Quenching was accomplished by addition of 20 μl of STOP solution (50 mM Tris (pH 8.5), 200 mM EDTA, 2 mM SAH). 35 μl of the quenched solution was transferred to streptavidin coated FlashPlates (PerkinElmer), incubated 1-2 h, washed, and read in a TopCount Reader (PerkinElmer). IC50s were calculated in Genedata Screener using non-linear least square four parameter fits, where the four parameters were IC50, Hill slope, pre-transitional baseline (0% INH), and post-transitional baseline (100% INH).
T1 sequence (Q15910 whole entry): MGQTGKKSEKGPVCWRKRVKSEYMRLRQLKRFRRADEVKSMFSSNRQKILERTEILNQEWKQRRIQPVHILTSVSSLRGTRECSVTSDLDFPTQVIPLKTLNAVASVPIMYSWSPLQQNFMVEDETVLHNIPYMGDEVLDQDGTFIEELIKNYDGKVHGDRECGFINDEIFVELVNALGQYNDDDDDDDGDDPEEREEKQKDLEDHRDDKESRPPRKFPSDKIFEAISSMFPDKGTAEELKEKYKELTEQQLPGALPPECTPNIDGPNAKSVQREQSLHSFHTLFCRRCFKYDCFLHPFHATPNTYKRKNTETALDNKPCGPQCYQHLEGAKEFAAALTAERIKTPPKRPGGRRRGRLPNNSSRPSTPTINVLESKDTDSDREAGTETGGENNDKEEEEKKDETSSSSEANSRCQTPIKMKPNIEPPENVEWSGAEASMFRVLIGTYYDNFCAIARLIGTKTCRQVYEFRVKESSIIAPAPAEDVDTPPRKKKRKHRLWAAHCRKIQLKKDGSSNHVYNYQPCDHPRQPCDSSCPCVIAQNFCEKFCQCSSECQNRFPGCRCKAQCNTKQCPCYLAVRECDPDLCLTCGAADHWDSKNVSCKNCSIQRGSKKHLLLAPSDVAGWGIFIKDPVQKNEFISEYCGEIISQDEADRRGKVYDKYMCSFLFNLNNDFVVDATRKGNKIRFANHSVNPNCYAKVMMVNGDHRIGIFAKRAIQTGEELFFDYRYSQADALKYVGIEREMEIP
T1 sequence (O75530 whole entry partner): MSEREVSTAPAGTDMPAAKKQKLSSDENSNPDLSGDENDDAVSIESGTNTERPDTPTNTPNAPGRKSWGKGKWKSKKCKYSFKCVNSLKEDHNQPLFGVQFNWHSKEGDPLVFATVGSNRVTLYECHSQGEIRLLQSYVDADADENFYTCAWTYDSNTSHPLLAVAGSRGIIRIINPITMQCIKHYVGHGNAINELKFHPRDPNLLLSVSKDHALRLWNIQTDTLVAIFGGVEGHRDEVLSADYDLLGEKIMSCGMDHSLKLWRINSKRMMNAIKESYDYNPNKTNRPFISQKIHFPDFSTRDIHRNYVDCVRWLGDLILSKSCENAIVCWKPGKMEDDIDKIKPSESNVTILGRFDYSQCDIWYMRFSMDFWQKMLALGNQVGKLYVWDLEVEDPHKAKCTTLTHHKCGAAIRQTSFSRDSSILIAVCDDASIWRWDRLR
T1 sequence (Q15022 whole entry partner): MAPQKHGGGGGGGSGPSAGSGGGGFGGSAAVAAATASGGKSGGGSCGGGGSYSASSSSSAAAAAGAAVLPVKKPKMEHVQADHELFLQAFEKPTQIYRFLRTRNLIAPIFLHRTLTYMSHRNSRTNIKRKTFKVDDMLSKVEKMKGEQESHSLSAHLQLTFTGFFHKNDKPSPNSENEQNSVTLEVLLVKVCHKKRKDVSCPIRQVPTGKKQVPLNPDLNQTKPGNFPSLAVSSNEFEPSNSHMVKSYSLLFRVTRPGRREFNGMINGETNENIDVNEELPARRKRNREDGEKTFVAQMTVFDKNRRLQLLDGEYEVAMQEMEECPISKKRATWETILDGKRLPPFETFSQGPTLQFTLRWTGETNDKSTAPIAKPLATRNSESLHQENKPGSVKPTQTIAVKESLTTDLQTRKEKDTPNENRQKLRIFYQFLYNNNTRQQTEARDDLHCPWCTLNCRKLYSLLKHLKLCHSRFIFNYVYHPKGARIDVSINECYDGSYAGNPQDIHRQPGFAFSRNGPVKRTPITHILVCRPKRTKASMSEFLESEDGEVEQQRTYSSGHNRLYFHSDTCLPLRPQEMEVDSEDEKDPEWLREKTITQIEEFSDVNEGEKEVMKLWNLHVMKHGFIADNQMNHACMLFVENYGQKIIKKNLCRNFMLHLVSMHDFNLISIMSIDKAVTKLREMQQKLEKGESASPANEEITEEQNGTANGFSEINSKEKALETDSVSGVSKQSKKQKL
T1 sequence (Q09028 whole entry partner): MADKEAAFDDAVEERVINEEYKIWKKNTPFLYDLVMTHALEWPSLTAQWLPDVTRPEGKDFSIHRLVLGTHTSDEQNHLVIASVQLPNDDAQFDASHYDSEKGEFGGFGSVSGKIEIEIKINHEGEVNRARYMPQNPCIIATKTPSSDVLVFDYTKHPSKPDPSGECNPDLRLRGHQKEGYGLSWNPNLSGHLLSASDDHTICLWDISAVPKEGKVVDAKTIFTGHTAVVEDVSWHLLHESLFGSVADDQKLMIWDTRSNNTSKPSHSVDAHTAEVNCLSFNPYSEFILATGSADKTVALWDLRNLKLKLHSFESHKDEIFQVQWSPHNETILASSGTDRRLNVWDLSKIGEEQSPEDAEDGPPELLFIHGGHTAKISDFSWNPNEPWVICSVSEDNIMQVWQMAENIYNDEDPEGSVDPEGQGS
T1 sequence (Q6ZN18 whole entry partner): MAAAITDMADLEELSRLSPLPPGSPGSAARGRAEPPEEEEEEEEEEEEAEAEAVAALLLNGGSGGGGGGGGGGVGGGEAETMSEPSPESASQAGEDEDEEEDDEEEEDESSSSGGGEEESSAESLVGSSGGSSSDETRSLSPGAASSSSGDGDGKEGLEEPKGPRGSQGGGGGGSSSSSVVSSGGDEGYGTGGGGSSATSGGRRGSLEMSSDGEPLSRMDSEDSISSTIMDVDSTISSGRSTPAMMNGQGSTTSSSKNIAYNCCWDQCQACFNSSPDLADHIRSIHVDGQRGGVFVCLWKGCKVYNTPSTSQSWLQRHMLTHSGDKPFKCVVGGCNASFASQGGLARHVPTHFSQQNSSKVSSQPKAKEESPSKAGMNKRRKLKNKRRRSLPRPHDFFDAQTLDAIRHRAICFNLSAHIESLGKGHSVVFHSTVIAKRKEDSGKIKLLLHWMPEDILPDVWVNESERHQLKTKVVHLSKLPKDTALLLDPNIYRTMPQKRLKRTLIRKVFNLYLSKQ

In data set [3] the target is T1, PRC2 containing wt EZH2. Nature of the data set: EZH2 residence time assay (100-fold dilution of enzyme-inhibitor complex). Particulars: recovery of enzyme activity after 100-fold dilution; read-out: EZH2 residence time (converted). In kind it is biochemical. Here is the method: EZH2 residence time assay: Compound residence times were assessed by monitoring the recovery of enzyme activity following a 100-fold dilution of pre-formed enzyme-inhibitor complex (dilution reaction), and comparing it to the activity of an undiluted control with the same final concentrations of all reagents (control reaction). Enzyme activity was measured by incorporation of ^3H-SAM into a biotinylated H3 peptide. For the dilution reaction, 20 nM PRC2 containing wt EZH2 (pentameric complex prepared in-house) was pre-incubated with 1 μM activating peptide (H2N-RKQLATKAAR(Kme3)SAPATGGVKKP-amide) and compound at 600 times its Ki for 2 h in 40 μL of buffer (50 mM Tris pH 8.5, 4 mM DTT, 1 mM MgCl2, 0.07 mM Brij-35, and 0.1 mg/mL BSA), then diluted 100-fold and the reaction initiated by transferring 1.4 μL to a 138.6 μL volume of buffer containing 1 μM activating peptide, 5.05 μM substrate peptide (H2N-[…]-NTPEGbiot), 1.01 μM SAM, and 1.01 μM ^3H-SAM. […] Reactions were quenched at various time points spanning up to 10 hours, by transferring 8μL aliquots from the reaction vessel to a plate containing 8μL per well of STOP solution (50 mM Tris pH 8.5, 200 mM EDTA, 2 mM SAH). After the last time point, 12 μL of the quenched solutions were transferred to a streptavidin coated FlashPlate (PerkinElmer) containing 40 μL per well of STOP solution, incubated 1-8 h, washed, and read in a TopCount plate reader (PerkinElmer).
A custom script was used to fit control reaction progress data to a straight line and dilution reaction progress data:
[formula] Where y is the product formed, t is the reaction time, vi is the initial velocity, vs is the steady state velocity, and kobs is the rate constant for the transition from the initial velocity phase of the curve to the steady state velocity phase of the curve. In fitting the dilution reaction progress data, vs was constrained to the slope of the line fitted to the control reaction progress data. The fitted value of kobs was then transformed into residence time:
[formula] Where τ is residence time, Ki is the inhibition constant, [EI] is the calculated equilibrium concentration of enzyme-inhibitor complex, [E] is the calculated equilibrium concentration of free enzyme, and [I] is the calculated equilibrium concentration of free inhibitor.

The test system of the next data set is H3K27me3 in Hela cells. The experiment in a line: H3K27me3 Alpha Hela Assay (AlphaLISA). It counts as cell-based. Particulars: Homo sapiens, HeLa, 72 h. How it is done: H3K27me3 Alpha Hela Assay (AlphaLISA). Ten different doses of each test compound (in a series of 3-fold dilutions) were plated in duplicate 384-well tissue culture treated plates (Catalog #6007680; Perkin Elmer, Waltham, Mass.). Hela cells grown in culture were trypsinized and counted using a Countess® cell counter (Catalog #C10281; Life Technologies, Grand Island, N.Y.). Cell were diluted to 67,000 cells per mL in10% DMEM (Catalog #10569-010 Life Technologies, Grand Island, N.Y.) and 15 μL (1,000 cells) were plated into each well using the Biotek MicroFlo™ Select Dispenser (BioTek Instruments, Inc. Vermont, USA),) of the 384-well plate. Plates were incubated at 37° C./5% CO2 for 72 hrs. One of the duplicate plates was processed for HeLa assay and the other for viability. 5 μL of Cell-Histone Lysis buffer (1×) (Catalog #AL009F1 Perkin Elmer; Waltham, Mass.) per well was added to the plate processed for AlphaLISA and the plate was incubated at RT for 30 minutes on a plate shaker with low speed (Model# 4625-Q Thermo Scientific; Waltham, Mass.). Then, 10 μL per well Histone Extraction buffer (catalog #AL009F2; Perkin Elmer; Waltham, Mass.) was added and the plate further incubated at RT for 20 min on plate shaker with low speed. Next, 10 μL of 5× mix of anti-K27me3 acceptor beads plus Biotinylated anti-Histone H3 (C-ter) Antibody (diluted to 3 nM final) (Catalog #AL118 Perkin Elmer; Waltham, Mass.) was added in each well. Dilution of the acceptor beads and anti-Histone H3 was done in 1× Histone Detection buffer (Catalog #AL009F3 Perkin Elmer; Waltham, Mass.) which was produced by diluting the 10× stock provided. The plate was sealed with an aluminum plate sealer and incubated at 23° C. for 60 min. Next, 10 μL 5× solution of Streptavidin Donor beads were added (Catalog #6760002 Perkin Elmer; Waltham, Mass.) (20 μg/mL final in 1× Histone Detection Buffer), =plate was sealed with Aluminum plate sealer and incubated at 23° C. for 30 min. The plates were then read using an EnVision-Alpha Reader (model #2104 Perkin Elmer; Waltham, Mass.). […]

Take `CSc1cc(C)[nH]c(=O)c1CNC(=O)c1cc(Cl)c2c(c1C)OC(C)(C1CCC(N3CC(F)(F)C3)CC1)O2` (single isomer, unassigned) [Example 7-Enantiomer 2]: it took 12 nM to inhibit growth in the data set with Karpas-422 cell lines by half (GI50). In addition, in data set [1], the Papp (as a rule, a coefficient for how fast a substance crosses the barrier) at 2.5 h, 2 μM was 12 ×10⁻⁶ cm/s and the efflux ratio (in general, a quotient of directional permeabilities that is used to spot active efflux) at 2.5 h, 2 μM was 0.71. Further, the IC50 (in general, the midpoint of a concentration-inhibition curve) at PRC2 containing wt EZH2 [2] was 0.12 nM. Further, at PRC2 containing wt EZH2 [3], the residence time is 1980 min.
With `CSc1cc(Cl)[nH]c(=O)c1CNC(=O)c1cc(Cl)c2c(c1C)O[C@@](C)([C@H]1CC[C@H](N(C)C)CC1)O2` [Example 3, (R)-7-chloro-N-((6-chloro-4-(methylthio)-2-oxo-1,2-dihydropyridin-3-yl)methyl)-2-(trans-4-(dimethylamino)cyclohexyl)-2,4-dimethylbenzo[d][1,3]dioxole-5-carboxamide], in the data set with H3K27me3 in Hela cells, the EC50 (commonly the concentration at which the effect is half-maximal) was found to be 2.4 nM. In addition, it took 29 nM to inhibit growth in the data set with Karpas-422 cell lines by half (GI50). Further, in data set [1], the Papp at 2.5 h, 2 μM came out at 3.7 ×10⁻⁶ cm/s and the efflux ratio at 2.5 h, 2 μM was 1.2. The same compound displayed an IC50 on PRC2 containing wt EZH2 [2] of 0.37 nM.
Compound `CSc1nc(C)[nH]c(=O)c1CNC(=O)c1cc(Cl)c2c(c1C)O[C@@](C)([C@H]1CC[C@H](N(C)C)CC1)O2` [Example 5] displayed an EC50 in the data set on H3K27me3 in Hela cells of 3.6 nM. The GI50 (commonly the concentration that inhibits growth by half) with Karpas-422 cell lines came to 22 nM. In data set [1], the Papp at 2.5 h, 2 μM stood at 1.1 ×10⁻⁶ cm/s and the efflux ratio at 2.5 h, 2 μM came out at 3.6. The compound further had an IC50 on PRC2 containing wt EZH2 [2] of 0.054 nM.
